Tests used:
[1] = Inhibition of MERS CoV 3CL protease using MCA-AVLQSGFR-Lys(Dnp)-Lys-NH2 as substrate by fluorescence based analysis; set-up: species or system Middle East respiratory syndrome-related coronavirus
Human coronavirus 229E = test: Antiviral activity against HCoV-229E infected in African green monkey Vero cells assessed as inhibition of plaque formation by viral plaque assay; assay type: functional, organism-based
[2] = tested on: Feline infectious peritonitis virus; test: Antiviral activity against FIPV infected in African green monkey Vero cells assessed as inhibition of plaque formation by viral plaque assay; assay type: functional, organism-based; conditions: Alphacoronavirus 1, Vero
Murine hepatitis virus [3] = test: Antiviral activity against MHV-A59 infected in African green monkey Vero cells assessed as inhibition of plaque formation by viral plaque assay; assay type: functional, organism-based; conditions: Murine coronavirus
Murine hepatitis virus [4] = test: Antiviral activity against MHV infected in African green monkey Vero cells assessed as inhibition of plaque formation by viral plaque assay; assay type: functional, organism-based; conditions: Murine coronavirus
[5] = Cytotoxicity against African green monkey Vero cells; assay type: toxicity, cell-based; conditions: chlorocebus sabaeus
SARS-CoV-2 [6] = test: Antiviral activity against SARS CoV-2 assessed as inhibition of virus-induced cytopathic effect by neutral red uptake assay; assay type: functional, organism-based; conditions: Severe acute respiratory syndrome coronavirus 2
[7] = Half life in mouse at 2 mg/kg, IM; assay type: ADME, organism-based; conditions: in vivo
[8] = Half life in Sprague-Dawley […] measured up to 24 hrs; assay type: ADME, organism-based
[9] = Cytotoxicity against African green monkey Vero E6 cells by CCK-8 assay; assay type: toxicity, cell-based, Vero C1008; conditions: chlorocebus sabaeus
[10] = Inhibition of FIPV 3CL protease using dabcyl-KTSAVLQ/SGFRKME-edans as substrate incubated for 30 mins followed by substrate addition measured after 30 mins by FRET assay; set-up: species or system Feline infectious peritonitis virus
[11] = Inhibition of TGEV 3CL protease using Dabcyl-KTSAVLQ/SGFRKME-Edans as substrate incubated for 30 mins followed by substrate addition measured after 30 mins by FRET assay; set-up: species or system Transmissible gastroenteritis virus
[12] = Inhibition of MERS 3CL protease using Dabcyl-KTSAVLQ/SGFRKME-Edans as substrate incubated for 30 mins followed by substrate addition measured after 30 mins by FRET assay; set-up: species or system Middle East respiratory syndrome-related coronavirus
[13] = biological target: Replicase polyprotein 1ab (Severe acute respiratory syndrome coronavirus 2, UniProt P0DTD1); test: Inhibition of recombinant SARS CoV-2 PL protease incubated for 60 mins by fluorescence based analysis
SARS-CoV = test: Antiviral activity against SARS CoV infected in HAE cells measured after 48 hrs by CellTiter-Glo assay; assay type: functional, organism-based; conditions: Severe acute respiratory syndrome-related coronavirus
[14] = tested on: Middle East respiratory syndrome-related coronavirus; test: Antiviral activity against […] CoV infected in HAE cells measured after 48 hrs by CellTiter-Glo assay; assay type: functional, organism-based
SARS-CoV-2 [15] = test: Antiviral activity against SARS CoV-2 infected in African green monkey Vero E6 cells assessed as inhibition of virus-induced cytopathic effect measured after 72 hrs by Reed-Muench method; assay type: functional, organism-based; conditions: Severe acute respiratory syndrome coronavirus 2, Vero C1008, 72 h
SARS-CoV-2 [16] = test: Antiviral activity against SARS CoV-2 infected in human Huh-7 cells measured up to 72 hrs by plaque assay; assay type: functional, organism-based; conditions: Severe acute respiratory syndrome coronavirus 2, Huh-7, 72 h
in vivo [17] = conditions: C57BL/6J (Ces1c knockout), mouse, sc, 25 mg/kg
in vivo [18] = conditions: C57BL/6J (wild type), mouse, sc, 25 mg/kg
SARS-CoV-2 [19] = test: Antiviral activity against SARS CoV-2 infected in African green monkey Vero cells assessed as inhibition of plaque formation by viral plaque assay; assay type: functional, organism-based; conditions: Severe acute respiratory syndrome coronavirus 2, Vero
[20] = Clearance in CD-1 mouse at 5 to 20 mg/kg, ip measured after up to 24 hrs by LC-MS/MS analysis; assay type: ADME, organism-based; conditions: in vivo, dose 5-20 mg/kg
[21] = Inhibition of MERS CoV 3CL protease expressed in Escherichia coli BL21-Gold DE3 cells by FRET assay; set-up: species or system Middle East respiratory syndrome-related coronavirus
[22] = Half life in CD-1 mouse at 3 mg/kg, sc measured after up to 24 hrs by HPLC-MS/MS analysis; assay type: ADME, organism-based; conditions: in vivo
[23] = Cmax in CD-1 mouse at 3 mg/kg, sc measured after up to 24 hrs by HPLC-MS/MS analysis; assay type: ADME, organism-based; set-up: time < 24 hrs, dose 3 mg/kg, route sc; conditions: in vivo

`Cc1cc(C(=O)N[C@@H](C)C(=O)N[C@H](C(=O)N[C@@H](CC(C)C)C(=O)N[C@H](/C=C/C(=O)OCc2ccccc2)C[C@@H]2CCNC2=O)C(C)C)no1` gave an IC50 [1] of 300 nM, an EC50 (Human coronavirus 229E) of 4 µM and an EC50 [2] of 8.8 µM. It also gave an EC50 (Murine hepatitis virus [3]) of 2700 nM, an EC50 (Murine hepatitis virus [4]) of 3.4 µM and a CC50 [5] greater than 133 µM.

Compound `Nc1ncnc2c([C@@H]3N[C@H](CO)[C@@H](O)[C@H]3O)c[nH]c12` has an EC50 (SARS-CoV-2 [6]) of 57.7 µM, a half-life [7] of less than 5 min and a half-life [8] of 372 min.

`CC(C)C[C@H](NC(=O)OCc1ccccc1)C(=O)N[C@@H](C[C@@H]1CCNC1=O)C(O)S(=O)(=O)O` (stereo partly specified) gave a CC50 [9] greater than 100 µM, an IC50 [10] of 720 nM and an IC50 [11] of 820 nM. For the same compound, the IC50 [12] was 1560 nM.

Compound `O=C(Nc1ccccc1O)c1ccccc1[Se][Se]c1ccccc1C(=O)Nc1ccccc1O` has an IC50 [13] of 34 µM.

Work on `CCC(CC)COC(=O)[C@H](C)N[P@](=O)(OC[C@H]1O[C@@](C#N)(c2ccc3c(N)ncnn23)[C@H](O)[C@@H]1O)Oc1ccccc1` yielded an EC50 (SARS-CoV) of 69 nM, an EC50 [14] of 74 nM and an EC50 (SARS-CoV-2 [15]) of 651 nM. For the same compound, the EC50 (SARS-CoV-2 [16]) was 3 nM, the half-life at 144 h (in vivo [17]) was 25 min and the half-life at 144 h (in vivo [18]) was less than 5 min.

In the case of `O=C[C@H](C[C@@H]1CCNC1=O)NC(=O)[C@H](Cc1cccc(F)c1)NC(=O)c1cc2ccccc2[nH]1`, the EC50 (SARS-CoV-2 [19]) is reported as 720 nM, the CC50 [9] is reported as greater than 100 µM and the CL/F [20] is reported as 21 mL/min/kg.

`CC(C)(C)OC(=O)Nc1cccn([C@@H](CC2CC2)C(=O)N[C@@H](C[C@@H]2CCNC2=O)C(=O)C(=O)NCc2ccccc2)c1=O` gave an IC50 [21] of 580 nM, a half-life [22] of less than 120 min and a Cmax [23] of 126 ng/mL.

From ChEMBL document CHEMBL5136972, “Targeting SARS-CoV-2 Proteases and Polymerase for COVID-19 Treatment: State of the Art and Future Opportunities” (J Med Chem, 2022)
